Columns and labels:
[1] = Randomized, crossover, fed/fasted single-dose pharmacokinetic study of oral sustained release tablets of compound (3) in healthy adult subjects; assay type: in vivo, human
Description: A randomized, crossover, fed/fasted single-dose study of the safety, tolerability, and pharmacokinetics of oral administration of 1-{[(α-isobutanoyloxyethoxy)carbonyl]aminomethyl}-1-cyclohexane acetic acid (3) in healthy adult subjects was conducted. The oral sustained release dosage form of Example 6 (uncoated) was used in this study. The study was designed to evaluate the performance of this formulation in humans in comparison with the commercial gabapentin capsule formulation (Neurontin®, Pfizer). Twelve healthy adult volunteers (7 males and 5 females) participated in the study. Mean body weight was 75.6 kg. All subjects received two different treatments in a random order with a one-week washout between treatments. The two treatments were: A) a single oral dose of Example 6 tablets (2×600 mg) after an overnight fast; and B) a single oral dose of Example 6 tablets (2×600 mg) after a high fat breakfast.
Blood and plasma samples were collected from all subjects prior to dosing, and at 0.5, 1, 1.5, 2, 3, 4, 6, 8, 12, 18, 24, and 36 hours after dosing. Urine samples were collected from all subjects prior to dosing, and complete urine output was obtained at the 0-4 h, 4-8 h, 8-12 h, 12-18 h, 18-24 h, and 24-36 h intervals after dosing. Blood samples were quenched immediately with methanol and stored frozen at […]. Sample aliquots were prepared for analysis of gabapentin and compound (3) using sensitive and specific LC/MS/MS methods.

[2] = cited from earlier work

SMILES	AUC of compound (3) in blood as % of corresponding AUC of gabapentin in blood ([1]; fasted subjects) [%]	Maximum intact compound (3) concentration as % of corresponding peak gabapentin concentration ([1]; fasted subjects)	AUC of compound (3) in blood as % of corresponding AUC of gabapentin in blood ([1]; fed subjects)	Maximum intact compound (3) concentration as % of corresponding peak gabapentin concentration ([1]; fed subjects)	Typical Tmax of immediate release gabapentin [2] [h]
CC(OC(=O)NCC1(CC(=O)O)CCCCC1)OC(=O)C(C)C (stereo not drawn) [compound (3), 1-{[(α-Isobutanoyloxyethoxy)carbonyl]aminomethyl}-1-Cyclohexane Acetic Acid]	0.3	approximately 1.0%	less than 0.1%	approximately 0.3%	
NCC1(CC(=O)O)CCCCC1 [gabapentin]					2 to 4
